Measured values taken from patent US9567325B2, “Carboxamide compounds and their use as calpain inhibitors” (AbbVie Deutschland GmbH & Co. KG, priority 2009, dated 2017).

Legend:
[1] = biological target: T1, recombinant human cathepsin S (Homo sapiens, UniProt P25774); assay: Cathepsin S enzyme inhibition in vitro, kinetic fluorescence assay (selectivity vs calpain); format: biochemical; settings: ratio of Ki values; Z-Val-Val-Arg-AMC substrate, pH 6.0
T1 construct: purchased Calbiochem 219343; host or cells: E. coli
T1 sequence (P25774 115-331): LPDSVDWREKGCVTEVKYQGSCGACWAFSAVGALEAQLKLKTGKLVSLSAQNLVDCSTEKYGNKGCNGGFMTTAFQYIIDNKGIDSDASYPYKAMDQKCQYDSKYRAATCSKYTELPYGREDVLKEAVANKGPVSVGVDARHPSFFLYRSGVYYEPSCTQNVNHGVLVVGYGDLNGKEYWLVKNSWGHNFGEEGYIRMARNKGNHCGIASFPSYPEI
Description: (§1) The following solutions and buffers were employed: • HBS (for 40 ml): 800 μl 1M HEPES; 2.16 ml 100 mM KCl; 4.8 ml 1M NaCl; 3.59 ml 5% glucose; 60 μl 1M MgSO4; 400 μl 100 mM Na pyruvate, 28.19 ml water; pH 7.2-7.5. • lysis buffer (for 20 ml): 400 μl 1M Tris pH 8.2; 2.74 ml 1M NaCl; 520 μl 0.5M EDTA; 2 ml 10% triton X-100; 0.8 ml (=1:25) CompletePlus (1 tablet/2 ml H2O); 200 μl 100 mM Pefabloc; 13.34 ml water, pH 8.2. • TBST (10×) (for 11): 100 mM Tris (12.1 g); 1.5M NaCl (87 g); 1% Tween 20 (10 g), adjusted to pH 8. I Enzyme Inhibition In Vitro: • Testing for blockade of the corresponding enzymic activities was carried out by means of kinetic fluorescence assays (excitation 390 nm, emission 460 nm). • Apparent Ki values were calculated from the experimentally determined IC50 values by the Cheng-Prussoff relation assuming a reversible competitive enzyme inhibition. The Km values of the substrates used under the assay conditions indicated above were: 90 μM (Z-Phe-Arg-AMC, cathepsin B), 10 μM (Z-Gly-Pro-Arg-AMC, cathepsin K), 2 μM (Z-Phe-Arg-AMC, cathepsin L), and 30 μM (Z-Val-Val-Arg-AMC, cathepsin S). • The indicated Ki values are averages of the inhibition constants calculated on the basis of 2 to 4 independent dose-effect plots. • The following assays were used: • 1. Calpain I: • 20 nM calpain-1-isolated from human erythrocytes (Calbiochem #208713), 100 μM Suc-Leu-Tyr-AMC (Bachem #1-1355) as substrate in buffer with 62 mM imidazole, 0.3 mM CaCl2, 0.10% CHAPS, 0.05% BSA, 1 mM DTT at pH 7.3 and room temperature. • 2. Cathepsin B: • 0.25 nM cathepsin B—isolated from human liver (Calbiochem #219362), 100 μM Z-Phe-Arg-AMC (Bachem #1-1160) as substrate 50 mM MES, 2 mM EDTA, 0.05% Brij 35, 2.5 mM L-cysteine, pH 6.0, room temperature. • 3. Cathepsin K: • 3 nM cathepsin K-activated from recombinant human procathepsin K from E. coli (Calbiochem #342001), 10 μM Z-Gly-Pro-Arg-AMC (Biomol #P-142) as substrate in 50 mM MES, 2 mM EDTA, 0.05% Brij 35, 2.5 mM L-cysteine, pH 6.0, room temperature. • 4. Cathepsin L: • 1 nM cathepsin L—isolated from human liver (Calbiochem #219402), 2 μM Z-Phe-Arg-AMC (Bachem #1-1160) as substrate in 50 mM MES, 2 mM EDTA, 0.05% Brij 35, 2.5 mM L-cysteine, pH 6.0, room temperature. • 5. Cathepsin S: • 0.5 nM recombinant human cathepsin S from E. coli (Calbiochem #219343), 20 μM Z-Val-Val-Arg-AMC (Bachem #I-1540) as substrate in 50 mM MES, 2 mM EDTA, 0.05% Brij 35, 2.5 mM L-cysteine, pH 6.0, room temperature. • The results of the in vitro determination are indicated in Table 1. The following abbreviations are used in Table 1: • In the “Calpain activity” column, +++ stands for a calpain Ki (Ki(calpain)) of ≦40 nM, and ++ means: 40 nM<Ki(Calpain)≦100 nM and + means 100 nM<Ki(Calpain)≦300 nM. • The “Sel. cat. B” column indicates the Ki(cathepsin B)/Ki(calpain) ratio. In this connection, ++ means a Ki(cathepsin B)/Ki(calpain) ratio of ≧30 and + means 10≦Ki(cathepsin B)/Ki(calpain)<30. • The “Sel. cat. K” column indicates the Ki(cathepsin K)/Ki(calpain) ratio. In this connection, ++ means a Ki(cathepsin K)/Ki(calpain) ratio of ≧30 and + means 10≦Ki(cathepsin K)/Ki(calpain)<30. • The “Sel. cat. L” column indicates the Ki(cathepsin L)/Ki(calpain) ratio. In this connection, ++ means a Ki(cathepsin L)/Ki(calpain) ratio of ≧50 and + means 30≦Ki(cathepsin L)/Ki(calpain)<50. • The “Sel. cat. S” column indicates the Ki(cathepsin S)/Ki(calpain) ratio. In this connection, ++ means a Ki(cathepsin S)/Ki(calpain) ratio of ≧100 and + means 50≦Ki(cathepsin S)/Ki(calpain)<100.

[2] = biological target: T2, cathepsin K activated from recombinant human procathepsin K (Homo sapiens, UniProt P43235); assay: Cathepsin K enzyme inhibition in vitro, kinetic fluorescence assay (selectivity vs calpain); format: biochemical; settings: ratio of Ki values; Z-Gly-Pro-Arg-AMC substrate, pH 6.0
T2 construct: purchased Calbiochem 342001; host or cells: E. coli
T2 sequence (P43235 115-329): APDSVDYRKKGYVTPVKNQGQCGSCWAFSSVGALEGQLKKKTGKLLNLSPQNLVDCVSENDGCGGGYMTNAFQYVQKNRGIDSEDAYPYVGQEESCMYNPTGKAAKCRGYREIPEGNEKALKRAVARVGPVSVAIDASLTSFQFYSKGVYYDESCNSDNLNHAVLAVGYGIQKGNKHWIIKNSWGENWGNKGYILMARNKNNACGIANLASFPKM
Description: as §1

[3] = biological target: T3, cathepsin L isolated from human liver (Homo sapiens, UniProt P07711); assay: Cathepsin L enzyme inhibition in vitro, kinetic fluorescence assay (selectivity vs calpain); format: biochemical; settings: ratio of Ki values; Z-Phe-Arg-AMC substrate, pH 6.0
T3 construct: 1 nM cathepsin L—isolated from human liver (Calbiochem #219402); purchased Calbiochem 219402; host or cells: human liver (natural source)
T3 sequence (P07711 114-333): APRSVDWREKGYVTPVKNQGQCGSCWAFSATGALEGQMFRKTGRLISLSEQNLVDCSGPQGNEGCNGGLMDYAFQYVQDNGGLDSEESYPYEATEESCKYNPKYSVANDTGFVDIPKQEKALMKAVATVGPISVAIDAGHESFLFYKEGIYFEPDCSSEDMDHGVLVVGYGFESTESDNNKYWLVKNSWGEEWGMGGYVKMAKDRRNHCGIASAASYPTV
Description: as §1

[4] = biological target: T4, cathepsin B isolated from human liver (Homo sapiens, UniProt P07858); assay: Cathepsin B enzyme inhibition in vitro, kinetic fluorescence assay (selectivity vs calpain); format: biochemical; settings: ratio of Ki values; Z-Phe-Arg-AMC substrate, pH 6.0
T4 construct: 0.25 nM cathepsin B—isolated from human liver (Calbiochem #219362); purchased Calbiochem 219362; host or cells: human liver (natural source)
Description: as §1

[5] = biological target: T5, calpain-1 isolated from human erythrocytes (Homo sapiens, UniProt P07384); assay: Calpain I enzyme inhibition in vitro, kinetic fluorescence assay; format: biochemical; settings: apparent Ki calculated from IC50 by Cheng-Prussoff; 100 μM Suc-Leu-Tyr-AMC, pH 7.3, room temperature
T5 construct: 20 nM calpain-1-isolated from human erythrocytes (Calbiochem #208713); purchased Calbiochem 208713; host or cells: human erythrocytes (natural source)
T5 sequence (P07384 1-714): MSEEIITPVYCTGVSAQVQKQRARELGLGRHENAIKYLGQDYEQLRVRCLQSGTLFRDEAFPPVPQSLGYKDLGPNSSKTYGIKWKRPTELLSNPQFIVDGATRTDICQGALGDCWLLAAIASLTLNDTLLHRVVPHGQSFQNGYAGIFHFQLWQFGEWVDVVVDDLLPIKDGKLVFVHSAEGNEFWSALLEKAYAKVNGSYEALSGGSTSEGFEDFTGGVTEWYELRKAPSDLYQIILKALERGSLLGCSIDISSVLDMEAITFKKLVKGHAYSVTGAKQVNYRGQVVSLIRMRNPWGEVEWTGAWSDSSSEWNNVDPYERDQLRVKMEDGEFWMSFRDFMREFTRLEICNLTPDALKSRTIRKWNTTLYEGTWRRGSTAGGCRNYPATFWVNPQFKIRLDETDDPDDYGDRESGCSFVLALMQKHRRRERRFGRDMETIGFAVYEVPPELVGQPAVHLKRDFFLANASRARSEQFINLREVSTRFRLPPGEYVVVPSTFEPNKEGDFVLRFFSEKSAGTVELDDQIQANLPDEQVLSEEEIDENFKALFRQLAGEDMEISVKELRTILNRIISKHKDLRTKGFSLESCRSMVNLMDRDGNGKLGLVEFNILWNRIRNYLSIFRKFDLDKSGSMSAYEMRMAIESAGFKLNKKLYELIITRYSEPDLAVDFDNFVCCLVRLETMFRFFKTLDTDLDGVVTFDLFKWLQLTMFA
T5 sequence (P04632 1-268 partner): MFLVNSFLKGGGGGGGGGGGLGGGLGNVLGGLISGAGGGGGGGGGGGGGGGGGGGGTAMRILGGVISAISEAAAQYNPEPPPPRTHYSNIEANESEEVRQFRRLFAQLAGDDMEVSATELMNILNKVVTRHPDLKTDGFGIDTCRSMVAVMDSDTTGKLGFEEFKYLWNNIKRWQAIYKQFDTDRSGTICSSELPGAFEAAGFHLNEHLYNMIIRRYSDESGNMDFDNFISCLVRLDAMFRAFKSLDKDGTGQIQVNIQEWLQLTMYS
Description: as §1

[6] = Cytosolic clearance in human liver cytosol; format: in vitro ADME; settings: 0.5 μM compound, 1 mg/ml human liver cytosol, 37° C., pH 7.5; read-out: human cytCL (cytosolic clearance)
[7] = Cytosolic clearance in cynomolgus monkey liver cytosol; format: in vitro ADME; settings: female; 0.5 μM compound, 1 mg/ml cynomolgus monkey liver cytosol, 37° C., pH 7.5; read-out: cyno cytCL (cytosolic clearance)

| Ki [5] [nM] | microsomal CLint at 0.5 μM [6] [µL/min/mg] | microsomal CLint at 0.5 μM [7] [µL/min/mg] | SMILES | Sel cat. S (Ki(cathepsin S)/Ki(calpain) ratio) [1] | Sel cat. K (Ki(cathepsin K)/Ki(calpain) ratio) [2] | Sel cat. L (Ki(cathepsin L)/Ki(calpain) ratio) [3] | Sel cat. B (Ki(cathepsin B)/Ki(calpain) ratio) [4] |
| --- | --- | --- | --- | --- | --- | --- | --- |
| ≤ 40 |  |  | NC(=O)C(=O)C(Cc1ccccc1)NC(=O)c1cccnc1-c1csc(-c2ccccc2Cl)n1 (stereo not drawn) [Example 8, N-(4-Amino-3,4-dioxo-1-phenylbutan-2-yl)-2-[2-(2-chlorophenyl)-1,3-thiazol-4-yl]pyridine-3-carboxamide] | ++ (++ means a Ki(cathepsin S)/Ki(calpain) ratio of ≧100) | + (+ means 10≦Ki(cathepsin K)/Ki(calpain)<30) | ++ (++ means a Ki(cathepsin L)/Ki(calpain) ratio of ≧50) | ++ (++ means a Ki(cathepsin B)/Ki(calpain) ratio of ≧30) |
| 40 to 100 |  |  | NC(=O)C(=O)C(Cc1ccccc1)NC(=O)c1cccnc1-c1csc(-c2ccc3ccccc3c2)n1 (stereo not drawn) [Example 9, N-(4-Amino-3,4-dioxo-1-phenylbutan-2-yl)-2-[2-(naphthalen-2-yl)-1,3-thiazol-4-yl]pyridine-3-carboxamide] | ++ (++ means a Ki(cathepsin S)/Ki(calpain) ratio of ≧100) | + (+ means 10≦Ki(cathepsin K)/Ki(calpain)<30) | ++ (++ means a Ki(cathepsin L)/Ki(calpain) ratio of ≧50) | ++ (++ means a Ki(cathepsin B)/Ki(calpain) ratio of ≧30) |
| 100 to 300 | < 14 | < 18 | O=C(NC1CC1)C(=O)C(Cc1ccccc1)NC(=O)c1cccnc1-c1csc(-c2ccccc2)n1 (stereo not drawn) [Example 13, N-(4-(Cyclopropylamino)-3,4-dioxo-1-phenylbutan-2-yl)-2-(2-phenylthiazol-4-yl)nicotinamide] |  | + (+ means 10≦Ki(cathepsin K)/Ki(calpain)<30) | + (+ means 30≦Ki(cathepsin L)/Ki(calpain)<50) | ++ (++ means a Ki(cathepsin B)/Ki(calpain) ratio of ≧30) |
| 100 to 300 | < 14 | < 18 | CONC(=O)C(=O)C(Cc1ccccc1)NC(=O)c1cccnc1-c1csc(-c2ccccc2)n1 (stereo not drawn) [Example 14, N-(4-(Methoxyamino)-3,4-dioxo-1-phenylbutan-2-yl)-2-(2-phenylthiazol-4-yl)nicotinamide] |  |  |  |  |
| 40 to 100 |  |  | NC(=O)C(=O)C(Cc1ccc(F)cc1)NC(=O)c1cccnc1-c1csc(-c2ccccc2)n1 (stereo not drawn) [Example 15, N-(4-Amino-1-(4-fluorophenyl)-3,4-dioxobutan-2-yl)-2-(2-phenylthiazol-4-yl)nicotinamide] | ++ (++ means a Ki(cathepsin S)/Ki(calpain) ratio of ≧100) | + (+ means 10≦Ki(cathepsin K)/Ki(calpain)<30) | ++ (++ means a Ki(cathepsin L)/Ki(calpain) ratio of ≧50) | ++ (++ means a Ki(cathepsin B)/Ki(calpain) ratio of ≧30) |
